In patent publication US20210261561A1, “BICYCLIC HETEROCYCLE DERIVATIVES HAVING SELECTIVE BACE1 INHIBITORY ACTIVITY” (SHIONOGI & CO., LTD., priority 2018, published 2021):

Key:
BACE2 = biological target: T1, BACE2 (Homo sapiens, UniProt Q9Y5Z0); assay: BACE2 biochemical FRET based assay (Test Example 2-4); details: recombinant BACE2 0.4 μg/mL, 10 μM substrate, 450 minutes, pH 5.0; read-out: BACE2 Biochemical FRET based assay pIC50 (converted)
T1 sequence (Q9Y5Z0 63-518): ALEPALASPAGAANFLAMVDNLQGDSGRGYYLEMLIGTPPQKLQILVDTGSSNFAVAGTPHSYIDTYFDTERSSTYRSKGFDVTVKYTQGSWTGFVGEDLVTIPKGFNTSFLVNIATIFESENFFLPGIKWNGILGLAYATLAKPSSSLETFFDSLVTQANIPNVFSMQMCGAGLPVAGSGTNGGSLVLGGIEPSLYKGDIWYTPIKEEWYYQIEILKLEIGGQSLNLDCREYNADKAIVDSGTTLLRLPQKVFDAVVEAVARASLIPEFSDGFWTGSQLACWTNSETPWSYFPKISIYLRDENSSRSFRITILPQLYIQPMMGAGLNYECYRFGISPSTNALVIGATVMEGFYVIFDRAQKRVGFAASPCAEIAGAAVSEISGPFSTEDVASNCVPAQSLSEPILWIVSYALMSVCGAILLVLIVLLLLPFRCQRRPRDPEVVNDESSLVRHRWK
Method in brief: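 Recombinant BACE2 (0.4 μg/mL final) incubated 450 min at room temperature with 10 μM Swedish-mutant APP Mca/Dnp FRET substrate in 33.3 mM citrate pH 5.0, 0.033% PEG, 2% DMSO. Fluorescence (ex 320/em 405 nm) difference between T0 and T450; % inhibition versus no-enzyme and full-enzyme controls, IC50 by non-linear regression.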

[1] = tested on: Abeta 1-37, Abeta 1-38, Abeta 1-40 and Abeta 1-42 in cerebrospinal fluid (CSF); assay: Pharmacology in the beagle dog, beta-amyloid profile in CSF (Test Example 18-2); type: in vivo; details: for % Decrease in Abeta 1-42 at 24 h^(a) or 25 h^(b) post dosing compared to own baseline: 24 h or 25 h
Experimental: Test compounds were tested to evaluate the effect on the beta-amyloid profile in cerebrospinal fluid (CSF) of dogs after a single dose, in combination with pharmacokinetic (PK) follow up and limited safety evaluation.
For each of compound II-6 or II-10, four beagle dogs (2 males, 2 females) were dosed with vehicle (1 mL/kg of an aqueous solution of 20% cyclodextrin) and 12 beagle dogs (2 males and 2 females per dosage group) were dosed with test compounds as follows:
In the case of compounds II-2, II-3 and II-18, two beagle dogs (1 male, 1 female) were dosed with vehicle (1 mL/kg of an aqueous solution of 20% cyclodextrin) and 4 beagle dogs (2 males and 2 females) were dosed with test compound (II-2, II-3, or II-18) at the doses indicated in the following Table in an aqueous 20% cyclodextrin solution with a concentration in mg/mL identical to the dose given in mg/kg) on an empty stomach.
CSF was taken in conscious animals directly from the lateral ventricle via a cannula which was screwed in the skull and covered with subcutaneous tissue and skin, before and at 4, 8, 25 and 49 hours after dosing. Eight hours after dosing the animals got access to their regular meal for 30 minutes. Blood was taken for PK follow up (0.5, 1, 2, 4, 8, 25 and 49 hours) and serum samples for biochemistry were taken before and at 8 and 25 h after dosing. The CSF samples were used for measurement of Abeta 1-37, Abeta 1-38, Abeta 1-40 and Abeta 1-42.

Compound: CC1(S(C)(=O)=O)CCC(CF)(c2cc(NC(=O)c3cc4c(cn3)OCCO4)ccc2F)N=C1N (stereo not shown) [II-1]
- IC50 (BACE2): 339 nM

Compound: [2H]C1([2H])Oc2cnc(C(=O)Nc3ccc(F)c([C@]4(CF)CC[C@@](C)(S(C)(=O)=O)C(N)=N4)c3)cc2OC1([2H])[2H] [II-2]
- % Decrease in Abeta 1-42 at 8 h post dosing compared to own baseline ([1]; single dose 0.63 mg/kg): 33%
- IC50 (BACE2): 229 nM

Compound: [2H]C1([2H])Oc2cnc(C(=O)Nc3ccc(F)c([C@]4(CF)CC[C@@](C)(S(C)(=O)=O)C(N)=N4)c3)cc2OC1([2H])[2H] [II-3]
- % Decrease in Abeta 1-42 at 8 h post dosing compared to own baseline ([1]; single dose 5 mg/kg): 61%
- IC50 (BACE2): 407 nM

Compound: CC1(S(C)(=O)=O)CCC(CF)(c2cc(NC(=O)c3cc4c(cn3)OCO4)ccc2F)N=C1N (stereo not shown) [II-4]
- IC50 (BACE2): 46.8 nM

Compound: CC1(S(C)(=O)=O)CCC(CF)(c2cc(NC(=O)c3cc4c(cn3)OCCCO4)ccc2F)N=C1N (stereo not shown) [II-5]
- IC50 (BACE2): 1150 nM

Compound: C[C@@]1(S(C)(=O)=O)CC[C@@](CF)(c2cc(NC(=O)c3cc4c(cn3)OC(F)(F)O4)ccc2F)N=C1N [II-6]
- % Decrease in Abeta 1-42 at 8 h post dosing compared to own baseline ([1]; single dose 0.16 mg/kg): 51%
- % Decrease in Abeta 1-42 at 24 h^(a) or 25 h^(b) post dosing compared to own baseline ([1]; single dose 0.16 mg/kg): 31%
- % Decrease in Abeta 1-42 at 8 h post dosing compared to own baseline ([1]; single dose 0.31 mg/kg): 69%
- % Decrease in Abeta 1-42 at 49 h post dosing compared to own baseline ([1]; single dose 0.31 mg/kg): 22%
- % Decrease in Abeta 1-42 at 8 h post dosing compared to own baseline ([1]; single dose 0.63 mg/kg): 68%
- % Decrease in Abeta 1-42 at 24 h^(a) or 25 h^(b) post dosing compared to own baseline ([1]; single dose 0.63 mg/kg): 62%
- IC50 (BACE2): 148 nM

Compound: C[C@@]1(S(C)(=O)=O)CC[C@@](CF)(c2cc(NC(=O)c3cc4c(cn3)OC(F)(F)O4)ccc2F)N=C1N [II-7]
- IC50 (BACE2): 178 nM

Compound: CC1(S(C)(=O)=O)CCC(CF)(c2cc(NC(=O)c3ncc4c(c3F)OCCO4)ccc2F)N=C1N (stereo not shown) [II-8]
- IC50 (BACE2): 309 nM

Compound: C[C@@]1(S(C)(=O)=O)CC[C@@](CF)(c2cc(NC(=O)c3cc4c(cn3)OC(F)(F)CO4)ccc2F)N=C1N [II-10]
- % Decrease in Abeta 1-42 at 8 h post dosing compared to own baseline ([1]; single dose 0.16 mg/kg): 37%
- % Decrease in Abeta 1-42 at 8 h post dosing compared to own baseline ([1]; single dose 0.63 mg/kg): 68%
- % Decrease in Abeta 1-42 at 24 h^(a) or 25 h^(b) post dosing compared to own baseline ([1]; single dose 0.63 mg/kg): 21%
- % Decrease in Abeta 1-42 at 8 h post dosing compared to own baseline ([1]; single dose 1.25 mg/kg): 73%
- % Decrease in Abeta 1-42 at 24 h^(a) or 25 h^(b) post dosing compared to own baseline ([1]; single dose 1.25 mg/kg): 27%
- % Decrease in Abeta 1-42 at 8 h post dosing compared to own baseline ([1]; single dose 2.5 mg/kg): 76%
- % Decrease in Abeta 1-42 at 24 h^(a) or 25 h^(b) post dosing compared to own baseline ([1]; single dose 2.5 mg/kg): 28%
- IC50 (BACE2): 66.1 nM

Compound: CC1(S(C)(=O)=O)CCC(CF)(c2cc(NC(=O)c3ncc4c(c3F)OC(F)(F)O4)ccc2F)N=C1N (stereo not shown) [II-13]
- IC50 (BACE2): 355 nM

Compound: CC1(S(C)(=O)=O)CCC(CF)(c2cc(NC(=O)c3ncc4c(c3F)OCC(F)(F)O4)ccc2F)N=C1N (stereo not shown) [II-14]
- IC50 (BACE2): 178 nM

Compound: [2H]C1([2H])Oc2cnc(C(=O)Nc3cc(F)c(F)c(C4(CF)CCC(C)(S(C)(=O)=O)C(N)=N4)c3)cc2OC1([2H])[2H] (stereo not shown) [II-16]
- IC50 (BACE2): 575 nM

Compound: CC1(S(C)(=O)=O)CCC(CF)(c2cc(NC(=O)c3cc4c(cn3)OC(F)(F)CO4)cc(F)c2F)N=C1N (stereo not shown) [II-17]
- IC50 (BACE2): 69.2 nM

Compound: CCS(=O)(=O)C1(C)CCC(CF)(c2cc(NC(=O)c3cc4c(cn3)OC(F)(F)CO4)ccc2F)N=C1N (stereo not shown) [II-19]
- IC50 (BACE2): 77.6 nM

Compound: CCS(=O)(=O)[C@]1(C)CC[C@@](CF)(c2cc(NC(=O)c3cc4c(cn3)OC(F)(F)O4)ccc2F)N=C1N [II-20]
- % Decrease in Abeta 1-42 at 8 h post dosing compared to own baseline ([1]; single dose 0.16 mg/kg): 51%
- % Decrease in Abeta 1-42 at 24 h^(a) or 25 h^(b) post dosing compared to own baseline ([1]; single dose 0.16 mg/kg): 30%
- % Decrease in Abeta 1-42 at 49 h post dosing compared to own baseline ([1]; single dose 0.16 mg/kg): 25%
- % Decrease in Abeta 1-42 at 8 h post dosing compared to own baseline ([1]; single dose 0.63 mg/kg): 72%
- % Decrease in Abeta 1-42 at 24 h^(a) or 25 h^(b) post dosing compared to own baseline ([1]; single dose 0.63 mg/kg): 70%
- % Decrease in Abeta 1-42 at 49 h post dosing compared to own baseline ([1]; single dose 0.63 mg/kg): 52%
- % Decrease in Abeta 1-42 at 8 h post dosing compared to own baseline ([1]; single dose 1 mg/kg): 73%
- % Decrease in Abeta 1-42 at 24 h^(a) or 25 h^(b) post dosing compared to own baseline ([1]; single dose 1 mg/kg): 76%
- % Decrease in Abeta 1-42 at 49 h post dosing compared to own baseline ([1]; single dose 1 mg/kg): 58%
- % Decrease in Abeta 1-42 at 8 h post dosing compared to own baseline ([1]; single dose 3.75 mg/kg): 86%
- % Decrease in Abeta 1-42 at 24 h^(a) or 25 h^(b) post dosing compared to own baseline ([1]; single dose 3.75 mg/kg): 91%
- % Decrease in Abeta 1-42 at 49 h post dosing compared to own baseline ([1]; single dose 3.75 mg/kg): 85%
- IC50 (BACE2): 186 nM

Compound: CC1(S(C)(=O)=O)CCC(CF)(c2cc(NC(=O)c3ncc4c(n3)OCCO4)cc(F)c2F)N=C1N (stereo not shown) [II-22]
- IC50 (BACE2): 427 nM

Compound: CCS(=O)(=O)C1(C)CCC(CF)(c2cc(NC(=O)c3cc4c(cn3)OC(F)(F)O4)cc(F)c2F)N=C1N (stereo not shown) [II-23]
- IC50 (BACE2): 257 nM

Compound: CC1(S(C)(=O)=O)CCC(CF)(c2cc(NC(=O)c3ncc4c(c3Cl)OC(F)(F)O4)ccc2F)N=C1N (stereo not shown) [II-25]
- IC50 (BACE2): 331 nM

Compound: CC1(S(C)(=O)=O)CCC(CF)(c2cc(NC(=O)c3ncc4c(c3Cl)OCCO4)ccc2F)N=C1N (stereo not shown) [II-26]
- IC50 (BACE2): 851 nM

Compound: CC1(S(=O)(=O)C2CC2)CCC(CF)(c2cc(NC(=O)c3cc4c(cn3)OC(F)(F)CO4)ccc2F)N=C1N (stereo not shown) [II-27]
- IC50 (BACE2): 52.5 nM

Compound: CC(C)S(=O)(=O)C1(C)CCC(CF)(c2cc(NC(=O)c3cc4c(cn3)OC(F)(F)CO4)ccc2F)N=C1N (stereo not shown) [II-28]
- IC50 (BACE2): 174 nM

Compound: C[C@@]1(c2cc(NC(=O)c3cc4c(cn3)OC(F)(F)O4)ccc2F)CC[C@@](C)(S(=O)(=O)C(F)(F)F)C(N)=N1 [II-29]
- IC50 (BACE2): 170 nM
